Assay results as given in ChEMBL document CHEMBL1201862, “PubChem BioAssay data set” (2004).
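Assay format: 96-well plates, 48-hour exposure. Abbreviation: GI50, concentration required for 50% inhibition of growth.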 The source made the active and inactive calls. Cut-off read from the data, not from the text of the source: active = GI50 up to about 1.1 µM and inactive = higher.

How the values were obtained:
Assay in all cases: NCI anticancer screen, dose series, 48 h
CAKI-1 = system: CAKI-1
NCI/ADR-RES = system: NCI/ADR-RES
HOP-62 = system: HOP-62
MDA-MB-231 = system: MDA-MB-231
Malme-3M = system: Malme-3M
T47D = system: T47D
UACC-62 = system: UACC-62
UO-31 = system: UO-31
NCI-H23 = system: NCI-H23
A498 = system: A498
HCT-116 = system: HCT-116
PC-3 = system: PC-3
SK-MEL-2 = system: SK-MEL-2
OVCAR-5 = system: OVCAR-5
OVCAR-4 = system: OVCAR-4
NCI-H522 = system: NCI-H522
A549 = system: A549
KM12 = system: KM12
NCI-H460 = system: NCI-H460
SR = system: SR
EKVX = system: EKVX
MCF7 = system: MCF7
MDA-N = system: MDA-N
OVCAR-8 = system: OVCAR-8
UACC-257 = system: UACC-257
SNB-19 = system: SNB-19
ACHN = system: ACHN
LOX IMVI = system: LOX IMVI
SNB-75 = system: SNB-75
HCT-15 = system: HCT-15
SF-539 = system: SF-539
COLO 205 = system: COLO 205
SK-MEL-5 = system: SK-MEL-5
SF-295 = system: SF-295
IGROV-1 = system: IGROV-1
DU-145 = system: DU-145
SW-620 = system: SW-620
HL-60 = system: HL-60
TK-10 = system: TK-10
K562 = system: K562
SK-OV-3 = system: SK-OV-3
Hs-578T = system: Hs-578T
SK-MEL-28 = system: SK-MEL-28
MDA-MB-435 = system: MDA-MB-435
MOLT-4 = system: MOLT-4
BT-549 = system: BT-549
SN12C = system: SN12C
OVCAR-3 = system: OVCAR-3
M14 = system: M14
SF-268 = system: SF-268
HT-29 = system: HT-29
U-251 = system: U-251
CCRF-CEM = system: CCRF-CEM
RXF 393 = system: RXF 393
HOP-92 = system: HOP-92
RPMI-8226 = system: RPMI-8226
786-0 = system: 786-0
NCI-H226 = system: NCI-H226
HCC 2998 = system: HCC 2998

In the case of COc1ccc(Oc2nc(C#CC(C)(C)O)nc(Oc3ccc(OC)cc3)n2)cc1, the GI50 (CAKI-1) is reported as 3.67 µM (inactive), the GI50 (NCI/ADR-RES) is reported as 18.9 µM (inactive) and the GI50 (HOP-62) is reported as 21.8 µM (inactive). The GI50 (MDA-MB-231) was 2.88 µM (inactive), the GI50 (Malme-3M) was 16.2 µM (inactive) and the GI50 (T47D) was 4.53 µM (inactive). The GI50 (UACC-62) was 11.6 µM (inactive), the GI50 (UO-31) was 1.55 µM (inactive) and the GI50 (NCI-H23) was 7.74 µM (inactive). For the same molecule, the GI50 (A498) was 17.8 µM (inactive), the GI50 (HCT-116) was 2.82 µM (inactive) and the GI50 (PC-3) was 2.52 µM (inactive). For the same molecule, the GI50 (SK-MEL-2) was 6.73 µM (inactive), the GI50 (OVCAR-5) was 4.72 µM (inactive) and the GI50 (OVCAR-4) was 1.79 µM (inactive). For the same molecule, the GI50 (NCI-H522) was 3.2 µM (inactive), the GI50 (A549) was 15.1 µM (inactive) and the GI50 (KM12) was 14 µM (inactive). The GI50 (NCI-H460) was 16.7 µM (inactive), the GI50 (SR) was 0.625 µM (active) and the GI50 (EKVX) was 16 µM (inactive). The GI50 (MCF7) was 1.51 µM (inactive), the GI50 (MDA-N) was 8.55 µM (inactive) and the GI50 (OVCAR-8) was 3.76 µM (inactive). The GI50 (UACC-257) was 17.9 µM (inactive), the GI50 (SNB-19) was 20 µM (inactive) and the GI50 (ACHN) was 1.69 µM (inactive). For the same molecule, the GI50 (LOX IMVI) was 1.39 µM (inactive), the GI50 (SNB-75) was 15.1 µM (inactive) and the GI50 (HCT-15) was 1.34 µM. For the same molecule, the GI50 (SF-539) was 7.08 µM (inactive), the GI50 (COLO 205) was 3.59 µM (inactive) and the GI50 (SK-MEL-5) was 14.5 µM (inactive). For the same molecule, the GI50 (SF-295) was 16.7 µM (inactive), the GI50 (IGROV-1) was 5.45 µM (inactive) and the GI50 (DU-145) was 2.62 µM (inactive). The GI50 (SW-620) was 1.84 µM (inactive), the GI50 (HL-60) was 1.07 µM (active) and the GI50 (TK-10) was 12.6 µM (inactive). For the same molecule, the GI50 (K562) was 1.67 µM (inactive), the GI50 (SK-OV-3) was 19.2 µM (inactive) and the GI50 (Hs-578T) was 16.4 µM (inactive). For the same molecule, the GI50 (SK-MEL-28) was 4.9 µM (inactive), the GI50 (MDA-MB-435) was 4.44 µM (inactive) and the GI50 (MOLT-4) was 1.53 µM (inactive). The GI50 (BT-549) was 14.9 µM (inactive), the GI50 (SN12C) was 13.9 µM (inactive) and the GI50 (OVCAR-3) was 2.1 µM (inactive). For the same molecule, the GI50 (M14) was 2.2 µM (inactive), the GI50 (SF-268) was 9.08 µM (inactive) and the GI50 (HT-29) was 3.3 µM (inactive). The GI50 (U-251) was 3.82 µM (inactive), the GI50 (CCRF-CEM) was 1.43 µM (inactive) and the GI50 (RXF 393) was 1.39 µM (inactive).

For CCOC(=O)c1c(N)sc2c1CC(C)CC2 (stereo not drawn), the GI50 (CAKI-1) was 49 µM (inactive), the GI50 (NCI/ADR-RES) was 44.3 µM (inactive) and the GI50 (HOP-62) was 52.5 µM (inactive). The GI50 (MDA-MB-231) was 33.4 µM (inactive), the GI50 (HOP-92) was 27.7 µM (inactive) and the GI50 (Malme-3M) was 38 µM (inactive). The GI50 (T47D) was 32.5 µM (inactive), the GI50 (UACC-62) was 51.2 µM (inactive) and the GI50 (UO-31) was 32.3 µM (inactive). The GI50 (NCI-H23) was 63.7 µM (inactive), the GI50 (HCT-116) was 47.6 µM (inactive) and the GI50 (RPMI-8226) was 30 µM (inactive). The GI50 (PC-3) was 29.4 µM (inactive), the GI50 (SK-MEL-2) was 31.9 µM (inactive) and the GI50 (OVCAR-5) was 55.3 µM (inactive). The GI50 (786-0) was 23.4 µM (inactive), the GI50 (OVCAR-4) was 34.1 µM (inactive) and the GI50 (NCI-H522) was 18.4 µM (inactive). For the same molecule, the GI50 (NCI-H226) was 23.5 µM (inactive), the GI50 (A549) was 38.5 µM (inactive) and the GI50 (KM12) was 41.5 µM (inactive). The GI50 (NCI-H460) was 35.6 µM (inactive), the GI50 (SR) was 28.6 µM (inactive) and the GI50 (EKVX) was 32.6 µM (inactive). For the same molecule, the GI50 (MCF7) was 32.9 µM (inactive), the GI50 (MDA-N) was 47.5 µM (inactive) and the GI50 (OVCAR-8) was 45.3 µM (inactive). The GI50 (UACC-257) was 31.2 µM (inactive), the GI50 (SNB-19) was 31 µM (inactive) and the GI50 (ACHN) was 39.9 µM (inactive). For the same molecule, the GI50 (LOX IMVI) was 42.2 µM (inactive), the GI50 (SNB-75) was 26.5 µM (inactive) and the GI50 (HCT-15) was 41.8 µM. For the same molecule, the GI50 (COLO 205) was 27.9 µM (inactive), the GI50 (HCC 2998) was 19.7 µM (inactive) and the GI50 (SK-MEL-5) was 19.2 µM (inactive). For the same molecule, the GI50 (SF-295) was 45 µM (inactive), the GI50 (IGROV-1) was 57.4 µM (inactive) and the GI50 (DU-145) was 67.5 µM (inactive). For the same molecule, the GI50 (SW-620) was 55.6 µM (inactive), the GI50 (HL-60) was 0.292 µM (active) and the GI50 (TK-10) was 45.6 µM (inactive). The GI50 (K562) was 39.4 µM (inactive), the GI50 (SK-OV-3) was 47.6 µM (inactive) and the GI50 (Hs-578T) was 43.7 µM (inactive). For the same molecule, the GI50 (SK-MEL-28) was 53.5 µM (inactive), the GI50 (MDA-MB-435) was 41.2 µM (inactive) and the GI50 (MOLT-4) was 30.9 µM (inactive). For the same molecule, the GI50 (BT-549) was 54.2 µM (inactive), the GI50 (SN12C) was 44.4 µM (inactive) and the GI50 (OVCAR-3) was 46.1 µM (inactive). For the same molecule, the GI50 (M14) was 26.8 µM (inactive), the GI50 (SF-268) was 45.1 µM (inactive) and the GI50 (HT-29) was 22.4 µM (inactive). The GI50 (U-251) was 42.4 µM (inactive) and the GI50 (RXF 393) was 18.6 µM (inactive).

CC1=Nc2sc3c(c2C2=NCCN12)CCCC3 was tested, and the GI50 (CAKI-1) was 22.9 µM (inactive), the GI50 (NCI/ADR-RES) was 14.8 µM (inactive) and the GI50 (HOP-62) was 40.6 µM (inactive). The GI50 (MDA-MB-231) was 33.3 µM (inactive), the GI50 (Malme-3M) was 25.7 µM (inactive) and the GI50 (T47D) was 32.7 µM (inactive). For the same molecule, the GI50 (UACC-62) was 15.3 µM (inactive), the GI50 (UO-31) was 17.1 µM (inactive) and the GI50 (NCI-H23) was 18.7 µM (inactive). For the same molecule, the GI50 (A498) was 39.9 µM (inactive), the GI50 (HCT-116) was 20.9 µM (inactive) and the GI50 (RPMI-8226) was 19.8 µM (inactive). The GI50 (PC-3) was 20 µM (inactive), the GI50 (SK-MEL-2) was 35.8 µM (inactive) and the GI50 (OVCAR-5) was 30.7 µM (inactive). The GI50 (786-0) was 21.8 µM (inactive), the GI50 (OVCAR-4) was 42.4 µM (inactive) and the GI50 (NCI-H522) was 19.5 µM (inactive). The GI50 (NCI-H226) was 15.1 µM (inactive), the GI50 (KM12) was 16.8 µM (inactive) and the GI50 (NCI-H460) was 19.7 µM (inactive). For the same molecule, the GI50 (SR) was 23.2 µM (inactive), the GI50 (EKVX) was 23.4 µM (inactive) and the GI50 (MCF7) was 23.7 µM (inactive). For the same molecule, the GI50 (MDA-N) was 22.3 µM (inactive), the GI50 (OVCAR-8) was 15.3 µM (inactive) and the GI50 (UACC-257) was 20.2 µM (inactive). For the same molecule, the GI50 (SNB-19) was 39.6 µM (inactive), the GI50 (ACHN) was 25.8 µM (inactive) and the GI50 (LOX IMVI) was 17.6 µM (inactive). The GI50 (SNB-75) was 37.2 µM (inactive), the GI50 (HCT-15) was 29.9 µM and the GI50 (COLO 205) was 32.3 µM (inactive). The GI50 (HCC 2998) was 29.9 µM (inactive), the GI50 (SK-MEL-5) was 28.2 µM (inactive) and the GI50 (SF-295) was 33.5 µM (inactive). The GI50 (IGROV-1) was 18.3 µM (inactive), the GI50 (DU-145) was 30.5 µM (inactive) and the GI50 (SW-620) was 25.4 µM (inactive). For the same molecule, the GI50 (HL-60) was 22.8 µM (inactive), the GI50 (TK-10) was 36.8 µM (inactive) and the GI50 (K562) was 23.6 µM (inactive). The GI50 (Hs-578T) was 27.5 µM (inactive), the GI50 (SK-MEL-28) was 28.6 µM (inactive) and the GI50 (MDA-MB-435) was 34 µM (inactive). The GI50 (MOLT-4) was 26.1 µM (inactive), the GI50 (BT-549) was 19.1 µM (inactive) and the GI50 (SN12C) was 29.9 µM (inactive). For the same molecule, the GI50 (OVCAR-3) was 28.2 µM (inactive), the GI50 (SF-268) was 52.2 µM (inactive) and the GI50 (HT-29) was 18.6 µM (inactive). For the same molecule, the GI50 (U-251) was 29 µM (inactive) and the GI50 (RXF 393) was 31.3 µM (inactive).
